From US8426412B2, “2-alkynyl-6-pyridin-2-yl-pyridazinones, 2-alkynyl-6-pyridin-2-yl-dihydropyridazinones, 2-alkynyl-6-pyrimidin-2-yl-pyridazinones and 2-alkynyl-6-pyrimidin-2-yl-dihydropyridazinones and their use as fungicides” (Dow AgroSciences, LLC., priority 2008, dated 2013)
In brackets after ≈: the same amount, converted by molar mass. Like-named read-outs stand apart in the source and are kept apart here.

What was measured:
[1] = target: T1, microsomal Δ-9 fatty acid desaturase (Saccharomyces cerevisiae, UniProt P21147); assay: Inhibition of Δ-9 fatty acid desaturase (desaturation of 14C-palmitoyl-CoA to 14C-palmitoleic acid); conditions: I50, concentration inhibiting production of palmitoleic acid by 50%; yeast microsomes, 30° C., 5 min
T1 sequence (P21147 1-510): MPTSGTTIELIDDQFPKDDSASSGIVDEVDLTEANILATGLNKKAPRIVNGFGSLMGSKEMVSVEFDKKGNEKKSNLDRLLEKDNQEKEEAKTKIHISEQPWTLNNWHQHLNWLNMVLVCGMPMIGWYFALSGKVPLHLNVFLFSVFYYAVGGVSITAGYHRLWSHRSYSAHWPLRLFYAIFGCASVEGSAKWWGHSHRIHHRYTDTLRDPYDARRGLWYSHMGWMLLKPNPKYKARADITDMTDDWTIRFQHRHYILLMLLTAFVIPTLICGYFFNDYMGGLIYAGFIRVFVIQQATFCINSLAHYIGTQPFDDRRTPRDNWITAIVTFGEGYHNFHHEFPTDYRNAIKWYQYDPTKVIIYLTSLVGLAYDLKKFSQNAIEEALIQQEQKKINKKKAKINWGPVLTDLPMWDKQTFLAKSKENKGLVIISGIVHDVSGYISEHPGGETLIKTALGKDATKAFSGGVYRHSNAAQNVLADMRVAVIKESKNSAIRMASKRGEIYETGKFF

[2] = system: Pyricularia oryzae (PYRIOR); assay: microbe, parasite or virus in culture; assay type: cell-based; conditions: 72 h, read-out: EC50 PYRIOR
[3] = system: Colletotrichum lagenarium (COLLLA); assay: Activity towards plant pathogenic fungi, growth inhibition in microtiter plates; assay type: cell-based; conditions: Colletotrichum orbiculare, 72 h, read-out: EC50 COLLLA
[4] = system: Candida albicans; assay: microbe, parasite or virus in culture; assay type: cell-based
[5] = 50% inhibition of growth, 25° C., NepheloStar plate reader

| SMILES | IC50 [1] | EC50 [2] | EC50 [3, 5] | other results |
| --- | --- | --- | --- | --- |
| CCCCCCCC#CCn1nc(-c2ccc(Cl)cn2)ccc1=O | 78.5 nM |  |  |  |
| CCC#CCn1nc(-c2ccc(Br)cn2)ccc1=O | < 123 nM |  |  |  |
| CCCCOCC#CCn1nc(-c2ccc(Cl)cn2)ccc1=O | 27.1 nM |  |  |  |
| CCCCOCCC#CCn1nc(-c2ccc(Cl)cn2)ccc1=O | 52 nM |  |  |  |
| CCCOCCCC#CCn1nc(-c2ccc(Cl)cn2)ccc1=O | 28.9 nM |  |  |  |
| CCCOCCOCC#CCn1nc(-c2ccc(Cl)cn2)ccc1=O | 108 nM |  |  |  |
| C=CC#CCn1nc(-c2ccc(Cl)cn2)ccc1=O | 58.9 nM |  |  |  |
| CCC#CCn1nc(-c2ncc(Br)cn2)ccc1=O | 3790 nM |  |  |  |
| CCCCCCCC#CCn1nc(-c2ncc(Br)cn2)ccc1=O | 87.3 nM |  |  |  |
| CCCCCCOCC#CCn1nc(-c2ncc(Br)cn2)ccc1=O | 39.5 nM |  |  |  |
| CCC#CCn1nc(-c2ccc(C(F)(F)F)cn2)ccc1=O |  | 0.674 µg/mL (≈ 2.19 µM) | 0.758 µg/mL (≈ 2.47 µM) |  |
| CCC#CCN1N=C(c2cc(Cl)ccn2)CCC1=O |  | 5.52 µg/mL (≈ 20 µM) | 5.75 µg/mL (≈ 20.9 µM) |  |
| CCC#CCN1N=C(c2ccc(Cl)cn2)CCC1=O |  | 0.021 µg/mL (≈ 0.0762 µM) | 0.194 µg/mL (≈ 0.704 µM) |  |
| CCC#CCN1N=C(c2ccc(Cl)c(Cl)n2)CCC1=O |  | 0.031 µg/mL (≈ 0.0999 µM) | 0.036 µg/mL (≈ 0.116 µM) |  |
| CCC#CCn1nc(-c2ccc(F)c(F)n2)ccc1=O |  | 0.163 µg/mL (≈ 0.592 µM) | 0.181 µg/mL (≈ 0.658 µM) |  |
| CCC#CCn1nc(-c2ccc(Cl)cn2)ccc1=O [drawing 70] | 121 nM |  |  |  |
| CCCCCOCC#CCn1nc(-c2ccc(Cl)cn2)ccc1=O [drawing 72] | 23.1 nM |  |  |  |
| CCCCCCCOCC#CCn1nc(-c2ccc(Cl)cn2)ccc1=O [drawing 76] | 45.5 nM |  |  |  |
| CCCCOCCOCC#CCn1nc(-c2ccc(Cl)cn2)ccc1=O [drawing 77] | 176 nM |  |  |  |
| CCC(C)CCOCC#CCn1nc(-c2ccc(Cl)cn2)ccc1=O (stereo not shown) [drawing 79] | 422 nM |  |  |  |
| CCCCCCCOCC#CCn1nc(-c2ccc(Cl)cn2)ccc1=O [drawing 80] | 72.2 nM |  |  |  |
| O=c1ccc(-c2ccc(Cl)cn2)nn1CC#CC1CC1 [drawing 82] | 472 nM |  |  |  |
| CCC#CCN1N=C(c2cccc(Cl)n2)CCC1=O [drawing 83] | > 145000 nM |  |  |  |
| CCC#CCn1nc(-c2cccc(Cl)n2)ccc1=O [drawing 84] | 61400 nM |  |  |  |
| CCC#CCn1nc(-c2ccc(Cl)c(Cl)n2)ccc1=O [drawing 85] | 263 nM |  |  |  |

| SMILES | IC50 [1] | EC50 [2] | EC50 [3, 5] | other results |
| --- | --- | --- | --- | --- |
| CCC#CCN1N=C(c2ncccc2Cl)CCC1=O [drawing 86] | > 145000 nM |  |  |  |
| CCC#CCn1nc(-c2ncccc2Cl)ccc1=O [drawing 87] | > 146000 nM |  |  |  |
| CCC#CCN1N=C(c2ncc(Cl)cc2Cl)CCC1=O [drawing 88] | > 129000 nM |  |  |  |
| CCC#CCn1nc(-c2ncc(Cl)cc2Cl)ccc1=O [drawing 89] | > 130000 nM |  |  |  |
| CC(C)(C)C#C/C=C/Cn1nc(-c2ccc(Cl)cn2)ccc1=O [drawing 90] | > 122000 nM |  |  |  |
| CCC#CCN1N=C(c2nc(Cl)c(Cl)cc2Cl)CCC1=O [drawing 91] | > 116000 nM |  |  |  |
| CCC#CCn1nc(-c2ccc(Cl)c(F)n2)ccc1=O [drawing 92] | 99.4 nM |  |  |  |
| CCC#CCn1nc(-c2ccc(Cl)cn2)ccc1=O [drawing 96] |  | 0.0474 µg/mL (≈ 0.173 µM) | 0.113 µg/mL (≈ 0.413 µM) |  |
| CCCCCOCC#CCn1nc(-c2ccc(Cl)cn2)ccc1=O [drawing 98] |  | 0.192 µg/mL (≈ 0.555 µM) | 0.007 µg/mL (≈ 0.0202 µM) |  |
| CCCCOCCOCC#CCn1nc(-c2ccc(Cl)cn2)ccc1=O [drawing 99] |  | 0.05 µg/mL (≈ 0.133 µM) | 0.033 µg/mL (≈ 0.0878 µM) |  |
| CCC(C)CCOCC#CCn1nc(-c2ccc(Cl)cn2)ccc1=O (stereo not shown) [drawing 100] |  | 0.284 µg/mL (≈ 0.789 µM) | 1.16 µg/mL (≈ 3.22 µM) |  |
| O=c1ccc(-c2ccc(Cl)cn2)nn1CC#CC1CC1 [drawing 101] |  | 0.062 µg/mL (≈ 0.217 µM) | 0.092 µg/mL (≈ 0.322 µM) |  |
| CCC#CCN1N=C(c2cccc(Cl)n2)CCC1=O [drawing 103] |  | 1.01 µg/mL (≈ 3.66 µM) | 3.4 µg/mL (≈ 12.3 µM) |  |
| CCC#CCn1nc(-c2cccc(Cl)n2)ccc1=O [drawing 105] |  | 1.4 µg/mL (≈ 5.11 µM) | 1 µg/mL (≈ 3.65 µM) |  |
| CCC#CCn1nc(-c2ccc(Cl)c(Cl)n2)ccc1=O [drawing 106] |  | 0.0371 µg/mL (≈ 0.12 µM) | 0.0537 µg/mL (≈ 0.174 µM) |  |
| CCC#CCN1N=C(c2ncccc2Cl)CCC1=O [drawing 108] |  | 33 µg/mL (≈ 120 µM) | > 40 µg/mL |  |
| CCC#CCn1nc(-c2ncccc2Cl)ccc1=O [drawing 109] |  | > 40 µg/mL | > 40 µg/mL |  |
| CCC#CCN1N=C(c2ncc(Cl)cc2Cl)CCC1=O [drawing 110] |  | 3.47 µg/mL (≈ 11.2 µM) | 8 µg/mL (≈ 25.8 µM) |  |
| CCC#CCn1nc(-c2ncc(Cl)cc2Cl)ccc1=O [drawing 111] |  | 4.42 µg/mL (≈ 14.3 µM) | 13.6 µg/mL (≈ 44.1 µM) |  |
| CC(C)(C)C#C/C=C/Cn1nc(-c2ccc(Cl)cn2)ccc1=O [drawing 112] |  | 8.11 µg/mL (≈ 24.7 µM) | > 40 µg/mL |  |
| CCC#CCN1N=C(c2nc(Cl)c(Cl)cc2Cl)CCC1=O [drawing 113] |  | 5.75 µg/mL (≈ 16.7 µM) |  | EC50 [3]: 8.71 µg/mL (≈ 25.3 µM) |
| CCC#CCn1nc(-c2ccc(Cl)c(F)n2)ccc1=O [drawing 114] |  | 0.0236 µg/mL (≈ 0.0809 µM) | 0.048 µg/mL (≈ 0.165 µM) |  |
| CCC#CCn1nc(-c2ccc(Cl)cn2)ccc1=O [drawing 116] |  |  |  | EC50 [4]: 0.091 µg/mL (≈ 0.332 µM) |
| CCCCCOCC#CCn1nc(-c2ccc(Cl)cn2)ccc1=O [drawing 117] |  |  |  | EC50 ([4]; Candida albicans, 48 h): 0.176 µg/mL (≈ 0.509 µM) |
| CCC#CCn1nc(-c2ccc(Cl)cn2)ccc1=O [drawing 118] |  |  |  | EC50 [4]: 0.210 µg/mL (≈ 0.767 µM) |
